Experimental data reported in article PMC6351529, “Novel carboxylate-based glycolipids: TLR4 antagonism, MD-2 binding and self-assembly properties” (Scientific Reports, 2019).

Experiments:
[1] = target: T1, human TLR4 (Homo sapiens, UniProt O00206+Q9Y6Y9); assay: Inhibition of LPS-stimulated TLR4 activation in HEK293-Blue hTLR4 cells (SEAP reporter); format: cell-based; settings: LPS 100 ng/mL, 15 min pre-incubation, 16 h, serum-free DMEM
T1 construct: host or cells: HEK-Blue hTLR4 (HEK293)
From the text: Synthetic monosaccharides were screened for their capacity to activate or inhibit LPS-stimulated TLR4 activation in HEK293-Blue hTLR4 cells. HEK293-Blue hTLR4 cells are HEK cells transfected in order to express the human receptors involved in LPS detection process (TLR4, MD-2 and membrane-bound CD14) and an inducible SEAP (secreted embryonic alkaline phosphatase) reporter gene placed under the control of NF-kB and AP-1-transcription factors. Activation of the MyD88-dependent TLR4 pathway promotes the production and secretion of SEAP in the cell culture media, which can be easily quantified.
SEAP levels in cell culture media were quantified after 16 hours as indicator of TLR4 activation. Data were normalized to stimulation with LPS alone and fitted to a sigmoidal 4 parameter logistic equation to obtain dose-effect curves (left panel). […] Briefly, cells were cultured in DMEM high glucose medium supplemented with 10% fetal bovine serum (FBS), 2 mM glutamine, antibiotics and 1 × HEK-Blue Selection (InvivoGen). Cells were detached using a cell scraper, counted and seeded in a 96-well multiwell plate at a density of 4 × 10^4 cells per well. […] For the antagonism evaluation, cells were stimulated with LPS (100 ng/mL, E. coli O55:B5, Sigma-Aldrich) after compounds pre-treatment and incubated for 16 hours as above. The SEAP-containing supernatants were collected and incubated with para-nitrophenyl phosphate (pNPP) for 2−4 h in the dark at room temperature. The wells optical density was determined using a microplate reader (labtech LT-4000) set to 405 nm.

[2] = target: T2, human MD-2 (hMD-2) (Homo sapiens, UniProt Q9Y6Y9); assay: Surface plasmon resonance (SPR) on immobilized hMD-2; settings: 1:1 Langmuir binding model, 25 °C
T2 construct: made in house; host or cells: Pichia pastoris
T2 sequence (Q9Y6Y9 19-160): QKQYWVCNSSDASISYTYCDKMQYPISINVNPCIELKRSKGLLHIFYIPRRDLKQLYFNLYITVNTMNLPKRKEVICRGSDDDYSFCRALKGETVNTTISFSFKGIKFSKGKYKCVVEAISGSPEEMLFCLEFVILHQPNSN
Method: SPR experimental curve optimal fitting was obtained by assuming 1:1 ligand/MD-2 binding stoichiometry.
The binding affinity of the compounds to recombinant hMD-2 was determined using a Biacore X100 with an NTA sensor chip (Biacore, GE Healthcare, Uppsala, Sweden). Briefly, 0.5 μM hMD-2 (in 50 mM TRIS, 150 mM NaCl, 0.5% Tween 20, pH 7.5) was immobilized onto the sensor chip previously activated with 1-min. pulse of 10 mM NiSO4. First flow cell was used as a reference surface to control non-specific binding. Both flow cells were injected with the analyte (in PBS, 5% DMSO, 5% EtOH, pH 7.5) at a flow rate of 10 μL/min at 25 °C in increasing concentrations. The data were analyzed with Biacore Evaluation software. KD values were calculated by global fitting of the equilibrium binding responses from various concentrations of analytes using a 1:1 Langmuir binding model.

[3] = set-up: method as in PMID 24339336; settings: cited from earlier work
[4] = tested on: C57BL/6 mice; assay: LPS-induced lung neutrophilia in mice, intratracheal administration; format: in vivo, mouse; settings: 45 µg i.t. with 1 µg LPS, BAL after 16 h
Method: We therefore also explored the antagonistic capacity of FP13 in a different in vivo model, where LPS and FP13 were both administered locally in the lungs. Intratracheal (i.t.) instillation of LPS is known to cause an acute inflammatory response in mice, characterized by transient infiltration of neutrophils into the airways[57],[58].
PBS and vehicle were administered as controls. Mice were sacrificed 16 h later and neutrophilia in the BAL fluid was measured by flow cytometry. Error bars represent the standard deviation of the mean.

[5] = tested on: TLR4 signaling in RAW 264.7-Blue cells; assay: LPS-induced TLR4 signaling in RAW 264.7-Blue cells (SEAP reporter, QUANTI-Blue); format: cell-based, murine
Method: To characterize the effect of synthetic compounds FP13-17 on cells naturally expressing TLR4, we used the murine macrophage RAW 264.7-Blue cell line, which are murine RAW 264.7 macrophages with chromosomal integration of SEAP reporter construct described in the previous section.
Figure 8 Inhibition of LPS-induced TLR4 signaling in RAW 264.7-Blue cells. […] SEAP reporter levels in the cell supernatant were determined by QuantiBlue Assay 24 h later. Error bars represent the standard deviation of the mean of technical triplicates. The graph is representative of at least three independent experiments.
Murine RAW 264.7-Blue cells (Invivogen) derived from the murine RAW 264.7 macrophages and stably expressing an NF-κB-inducible secreted alkaline phosphatase (SEAP) reporter gene were cultured in Dulbecco’s modified Eagle’s medium (DMEM), supplemented with 10% Fetal bovine serum (FBS), L-Glutamine (2 mM) and sodium pyruvate (0.4 mM), in the presence of selection antibiotic Zeocin (200 μg/mL). E. coli O111:B4 LPS was purchased from Invivogen. Bovine serum albumin (BSA) was purchased from Sigma-Aldrich. Compounds FP13-17 were reconstituted in DMSO/ethanol to provide a 10 mM stock solution. […] C57BL6/J mice were obtained from Janvier. […]
[…] 24 h later cell supernatants were analyzed for SEAP production by the QUANTI-Blue Assay (Invivogen).

[6] = tested on: C57BL/6 mice; assay: LPS-induced serum TNFα in mice, compound i.p.; format: in vivo, mouse; settings: 200 µg i.p., LPS 30 min later, serum after 4 h
Method: To further investigate whether carboxylate-based lipid A mimetics are able to inhibit LPS-induced signaling in vivo, we injected C57BL/6 mice i.p. with 200 µg of compound FP13 followed by the LPS injection 30 min later. […] The reason for this was unclear and we hypothesized poor distribution and absorption of the compound upon i.p. injection.
C57BL/6 mice were injected i.p. with 200 µg FP13. 30 min later, the mice were i.p. injected with 150 µg of Salmonella enterica LPS, or vehicle and PBS as controls. Mice were sacrificed 4 h later and serum was collected. Serum TNF concentration was determined by Luminex-based Bio-Plex Multiplex system. Error bars represent the standard deviation of the mean.

T1 sequence (O00206 24-839, one chain of several): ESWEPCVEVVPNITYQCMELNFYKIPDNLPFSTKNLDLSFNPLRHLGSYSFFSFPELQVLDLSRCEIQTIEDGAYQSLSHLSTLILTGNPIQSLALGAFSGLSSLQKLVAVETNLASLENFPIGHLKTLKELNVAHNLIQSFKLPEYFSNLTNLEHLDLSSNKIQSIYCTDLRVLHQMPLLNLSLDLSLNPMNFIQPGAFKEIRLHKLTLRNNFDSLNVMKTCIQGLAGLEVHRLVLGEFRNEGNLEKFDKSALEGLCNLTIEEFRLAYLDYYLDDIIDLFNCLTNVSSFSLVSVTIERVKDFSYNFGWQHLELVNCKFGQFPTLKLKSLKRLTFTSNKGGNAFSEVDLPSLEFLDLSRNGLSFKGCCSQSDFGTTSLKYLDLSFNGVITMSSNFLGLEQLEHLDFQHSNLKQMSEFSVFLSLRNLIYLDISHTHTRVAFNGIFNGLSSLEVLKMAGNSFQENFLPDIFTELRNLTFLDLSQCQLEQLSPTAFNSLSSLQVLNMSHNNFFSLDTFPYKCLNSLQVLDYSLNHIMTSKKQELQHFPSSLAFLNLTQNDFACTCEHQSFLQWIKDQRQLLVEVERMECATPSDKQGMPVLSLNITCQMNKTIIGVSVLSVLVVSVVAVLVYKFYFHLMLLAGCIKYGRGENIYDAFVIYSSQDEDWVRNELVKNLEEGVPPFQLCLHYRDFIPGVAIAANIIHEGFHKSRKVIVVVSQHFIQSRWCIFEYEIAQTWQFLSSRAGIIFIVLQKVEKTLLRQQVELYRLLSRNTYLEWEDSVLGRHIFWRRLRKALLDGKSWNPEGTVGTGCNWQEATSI

| Compound | IC50 [1] [µM] | Kd [2] [µM] | CMC [3] | effect on LPS-induced neutrophil infiltration into the airways [4] | antagonistic activity in presence of serum ([5]; DMEM supplemented with 10% FBS) | antagonistic activity in presence of BSA ([5]; serum-free with 4 or 20 mg/mL BSA) | effect on LPS-induced serum TNFα levels [6] |
| --- | --- | --- | --- | --- | --- | --- | --- |
| CCCCC/C=C\C/C=C\CCCCCCCC(=O)N[C@H]1[C@H](OC(=O)CCC(=O)O)O[C@H](CO)[C@@H](OC(=O)CCC(=O)O)[C@@H]1OC(=O)CCCCCCCCCCCCC [FP16] | 6.61 | 21 | – | – | – | – | – |
| CCCCCCCC/C=C\CCCCCCCC(=O)N[C@H]1[C@H](OC(=O)CCC(=O)O)O[C@H](CO)[C@@H](OC(=O)CCC(=O)O)[C@@H]1OC(=O)CCCCCCCCCCCCC [FP15] | 3.5 | 14 | – | – | – | – | – |
| CCCCCCCCCCCCCC(=O)N[C@H]1[C@@H](OP(=O)(O)O)O[C@H](CO)[C@@H](OP(=O)(O)O)[C@@H]1OC(=O)CCCCCCCCCCCCC [FP7] | – | – | about 9 µM | – | – | – | – |
| CCCCCCCCCCCCCC(=O)N[C@H]1[C@H](OC(=O)CCC(=O)O)O[C@H](CO)[C@@H](OC(=O)CCC(=O)O)[C@@H]1OC(=O)CCCCCCCCCCCCC [FP17] | 2.7 | 12 | – | – | – | – | – |
| CCCCC/C=C\C/C=C\CCCCCCCC(=O)N[C@H]1[C@H](OC(=O)CCC(=O)O)O[C@H](CO)[C@@H](OC(=O)CCC(=O)O)[C@@H]1OC(=O)CCCCCCC/C=C\C/C=C\CCCCC [FP14] | 4.35 | 35 | – | – | – | – | – |
| CCCCCCCC/C=C\CCCCCCCC(=O)N[C@H]1[C@H](OC(=O)CCC(=O)O)O[C@H](CO)[C@@H](OC(=O)CCC(=O)O)[C@@H]1OC(=O)CCCCCCC/C=C\CCCCCCCC [FP13] | 5.91 | 9 | – | failed to suppress | completely neutralized | strongly decreased | did not affect |
